Source: patent US8791139B2, “Anthranilic diamide derivatives” (Bayer Cropscience AG, priority 2010, dated 2014)
Where two headings read alike, the source gives them in different places. Each block holds one molecule with its values, some of them ahead of it.

Assays:
[1] = logP by HPLC on reversed-phase columns (C18), EEC Directive 79/831 Annex V.A8; assay type: physicochemical
Description: The logP values reported in the table above and in the Preparation Examples were determined in accordance with EEC Directive 79/831 Annex V.A8 by HPLC (High Performance Liquid Chromatography) on reversed-phase columns (C18), with the following methods:
The LC-MS determination in the acidic range is carried out at pH 2.7 using the mobile phases 0.1% aqueous formic acid and acetonitrile (contains 0.1% formic acid), linear gradient from 10% acetonitrile to 95% acetonitrile
Calibration was carried out using unbranched alkan-2-ones (having from 3 to 16 carbon atoms) with known logP values (the logP values were determined by the retention times using linear interpolation between two successive alkanones).

[2] = test system: caterpillars of the armyworm (Spodoptera frugiperda); assay: Spodoptera frugiperda test (SPODFR spray treatment); assay type: in vivo; settings: 168 h
Description: After 7 days, the effect in % is determined.

[3] = test system: green peach aphid (Myzus persicae); assay: Myzus test (MYZUPE spray treatment); assay type: in vivo; settings: application rate 100 g/ha, after 6 days, Chinese cabbage leaf discs
[4] = test system: larvae of the mustard beetle (Phaedon cochleariae); assay: Phaedon test (PHAECO spray treatment); settings: 168 h; for pest or weed control at 100 g/ha / pest or weed control at 500 g/ha: read-out: activity (beetle larvae killed)
Lucilia cuprina larvae = assay: Lucilia cuprina test (LUCICU); assay type: in vivo; settings: application rate 100 ppm, after 48 h
Excerpt: (§1) Solvent: dimethyl sulphoxide
Vessels containing horse meat treated with the active compound preparation of the desired concentration are populated with about 20 Lucilia cuprina larvae.

Boophilus microplus = Boophilus microplus test (BOOPMI injection); assay type: in vivo; settings: application rate 20 μg/animal, injection into abdomen, after 7 days
Description: as §1
The active compound solution is injected into the abdomen (Boophilus microplus), and the animals are transferred into dishes and stored in a climate-controlled room.
The activity is assessed by […] of fertile eggs. 100% means that none of the ticks has laid any fertile eggs.

[5] = read-out: activity (caterpillars killed)

Structure (SMILES): CNC(=O)c1cc(Cl)cc(C)c1NC(=O)c1cc(CN(C=O)c2ccc(Cl)cc2NS(C)(=O)=O)nn1-c1ncccc1Cl [Example 33]
- chromatographic logP ([1]; pH 2.7, log P): 2.49
- pest or weed control at 100 g/ha [2, 5]: 100%
- activity (aphids killed) [3]: 90%

Structure (SMILES): CNC(=O)c1cc(C#N)cc(C)c1NC(=O)c1cc(CN2CC(C(F)(F)F)C(c3ccc(Cl)cc3)=N2)nn1-c1ncccc1Cl (stereo not shown) [Example 68]
- chromatographic logP ([1]; pH 2.7, log P): 3.66
- pest or weed control at 100 g/ha [2, 5]: 100%
- pest or weed control at 100 g/ha [4]: 100%

Structure (SMILES): CNC(=O)c1cc(C#N)cc(C)c1NC(=O)c1cc(Nc2cc(C(F)(F)F)c(C(F)(F)F)cn2)nn1-c1ncccc1Cl [Example 71]
- chromatographic logP ([1]; pH 2.7, log P): 3.5
- pest or weed control at 100 g/ha [2, 5]: 100%
- pest or weed control at 100 g/ha [4]: 100%

Structure (SMILES): CNC(=O)c1cc(C#N)cc(C)c1NC(=O)c1cc(C(=O)c2nc(C(F)(F)F)cs2)nn1-c1ncccc1Cl [Example 20]
- chromatographic logP ([1]; pH 2.7, log P): 2.77
- pest or weed control at 500 g/ha [2, 5]: 100%
- pest or weed control at 500 g/ha [4]: 100%

Structure (SMILES): Cc1cc(C#N)cc(C(N)=O)c1NC(=O)c1cc(C#Cc2ccc(OC(F)(F)F)cc2)nn1-c1ncccc1Cl [Example 12]
- chromatographic logP ([1]; pH 2.7, log P): 3.58
- efficacy (kill of larvae) (Lucilia cuprina larvae): 90%
- pest or weed control at 100 g/ha [2, 5]: 100%

Structure (SMILES): Cc1cc(C#N)cc(C(=O)NC(C)(C)C)c1NC(=O)c1cc(C(=O)c2ccc(C(F)(F)F)nc2)nn1-c1ncccc1Cl [Example 19]
- chromatographic logP ([1]; pH 2.7, log P): 3.85
- pest or weed control at 500 g/ha [2, 5]: 100%
- pest or weed control at 500 g/ha [4]: 100%

Structure (SMILES): Cc1cc(C#N)cc(C(=O)NC(C)C)c1NC(=O)c1cc(Nc2ccc(C(F)(F)F)cn2)nn1-c1ncccc1Cl [Example 67]
- chromatographic logP ([1]; pH 2.7, log P): 3.31
- pest or weed control at 100 g/ha [2, 5]: 100%
- pest or weed control at 100 g/ha [4]: 100%

Structure (SMILES): CNC(=O)c1cc(C#N)cc(C)c1NC(=O)c1cc(C(=O)Cn2nnc(C(F)(F)F)n2)nn1-c1ncccc1Cl [Example 15]
- chromatographic logP ([1]; pH 2.7, log P): 2.89
- efficacy (no fertile eggs laid) (Boophilus microplus): 100%
- efficacy (kill of larvae) (Lucilia cuprina larvae): 100%
- pest or weed control at 20 g/ha [2, 5]: 100%
- pest or weed control at 100 g/ha [4]: 100%
- activity (aphids killed) [3]: 90%

- chromatographic logP ([1]; reversed-phase HPLC column (C18), pH 2.7, HPLC reversed-phase C18, acidic range pH 2.7, 0.1% aqueous formic acid/acetonitrile, table of compounds of formula (I), read-out: log P): 4.43
Structure (SMILES): CNC(=O)c1cc(Cl)cc(C)c1NC(=O)c1cc(N2CCN(c3cc(C(F)(F)F)cc(C(F)(F)F)c3)C2=O)nn1-c1ncccc1Cl [Example 22]
- efficacy (no fertile eggs laid) (Boophilus microplus): 100%
- efficacy (kill of larvae) (Lucilia cuprina larvae): 100%
- pest or weed control at 100 g/ha ([2]; application rate 100 g/ha, after 7 days, read-out: activity (caterpillars killed)): 100%
- pest or weed control at 100 g/ha [4]: 100%

Structure (SMILES): Cc1cc(Cl)cc(C(=O)NC(C)C)c1NC(=O)c1cc(C#Cc2ccc(OC(F)(F)F)cc2)nn1-c1ncccc1Cl [Example 11]
- chromatographic logP ([1]; pH 2.7, log P): 4.79
- efficacy (kill of larvae) (Lucilia cuprina larvae): 90%
- pest or weed control at 100 g/ha [2, 5]: 100%
- pest or weed control at 100 g/ha [4]: 100%

Structure (SMILES): CNC(=O)c1cc(Cl)cc(C)c1NC(=O)c1cc(CN(C=O)c2ccccc2NS(C)(=O)=O)nn1-c1ncccc1Cl [Example 32]
- chromatographic logP ([1]; pH 2.7, log P): 2.09
- activity (aphids killed) [3]: 80%

Structure (SMILES): CNC(=O)c1cc(C#N)cc(C)c1NC(=O)c1cc(Oc2ccc(C(F)(F)F)cn2)nn1-c1ncccc1Cl [Example 77]
- chromatographic logP ([1]; pH 2.7, log P): 2.89
- pest or weed control at 100 g/ha [2, 5]: 100%
- pest or weed control at 100 g/ha [4]: 100%

Structure (SMILES): CNC(=O)c1cc(C#N)cc(C)c1NC(=O)c1cc(C(O)Cn2nnc(C(F)(F)F)n2)nn1-c1ncccc1Cl (stereo not shown) [Example 63]
- log P ([1]; pH 2.7): 2.27
- chromatographic logP ([1]; pH 2.7, log P): 2.01
- efficacy (no fertile eggs laid) (Boophilus microplus): 100%
- pest or weed control at 100 g/ha [2, 5]: 100%
- activity (aphids killed) [3]: 80%

Structure (SMILES): Cc1cc(C#N)cc(C(=O)NC(C)C)c1NC(=O)c1cc(C(=O)c2nc(C(F)(F)F)cs2)nn1-c1ncccc1Cl [Example 21]
- chromatographic logP ([1]; pH 2.7, log P): 3.24
- efficacy (kill of larvae) (Lucilia cuprina larvae): 100%
- pest or weed control at 100 g/ha [2, 5]: 100%
- pest or weed control at 100 g/ha [4]: 100%
- activity (aphids killed) [3]: 90%

Structure (SMILES): CNC(=O)c1cc(Cl)cc(C)c1NC(=O)c1cc(C#Cc2ccc(OC(F)(F)F)cc2)nn1-c1ncccc1Cl [Example 10]
- chromatographic logP ([1]; pH 2.7, log P): 4.29
- pest or weed control at 100 g/ha [2, 5]: 100%
- pest or weed control at 100 g/ha [4]: 100%

Structure (SMILES): CCOc1ccc(C(=O)c2cc(C(=O)Nc3c(C)cc(C#N)cc3C(=O)NC)n(-c3ncccc3Cl)n2)cn1 [Example 17]
- chromatographic logP ([1]; pH 2.7, log P): 2.99
- pest or weed control at 100 g/ha [2, 5]: 100%
- pest or weed control at 100 g/ha [4]: 100%

Structure (SMILES): CNC(=O)c1cc(C#N)cc(C)c1NC(=O)c1cc(C(=O)c2ccc(C(F)(F)F)nc2)nn1-c1ncccc1Cl [Example 18]
- chromatographic logP ([1]; pH 2.7, log P): 3.01
- inhibition at 100 g/ha ([2]; 100 g/ha, 7 d, comparison with prior art): 100%
- inhibition at 100 g/ha ([4]; read-out: % Activity, PHAECO): 100%
- pest or weed control at 100 g/ha [4]: 100%

Structure (SMILES): Cc1cc(C#N)cc(C(=O)NC(C)C)c1NC(=O)c1cc(Nc2ccc(C(F)(F)F)cc2)nn1-c1ncccc1Cl [Example 74]
- chromatographic logP ([1]; pH 2.7, log P): 3.7
- pest or weed control at 100 g/ha [2, 5]: 100%
- pest or weed control at 100 g/ha [4]: 100%

Structure (SMILES): CNC(=O)c1cc(C#N)cc(C)c1NC(=O)c1cc(/C=C/n2nnc(C(F)(F)F)n2)nn1-c1ncccc1Cl [Example 64]
- chromatographic logP ([1]; pH 2.7, log P): 3.17
- pest or weed control at 100 g/ha [2, 5]: 100%
- pest or weed control at 100 g/ha [4]: 100%
